Results on two molecules are retold here after patent publication US20030068321A1, “Methods of effecting neuronal activity” (Guilford Pharmaceuticals, Inc., priority 2001, published 2003).

Entries after “also recorded” stand apart in the source; their conditions may differ. Peptide text beside a SMILES is read from it.

This experiment has as its system chick sensory neurons from dorsal root ganglia. The experiment is described as follows: Chick dorsal root ganglion cultures and neurite outgrowth. The format is cell-based. To be noted: 1 mM concentration; whole DRG explants, forty-eight hours after drug treatment. How it is done: Dorsal root ganglia were dissected from chick embryos of ten-day gestation. Whole ganglion explants were cultured on thin layer Matrigel-coated 12 well plates with Liebovitz L15 plus high glucose media supplemented with 2 mM glutamine and 10% fetal calf serum, and also containing 10 μM cytosine […] (Ara C) at 37° C. in an environment containing 5% CO2. Twenty-four hours later, the DRGs were treated with various concentrations of nerve growth factor, immunophilin ligands or combinations of NFG plus drugs. Forty-eight hours after drug treatment, the ganglia were visualized under phase contrast or Hoffman Modulation contrast with a Zeiss Axiovert inverted microscope. Photomicrographs of the explants were made, and neurite outgrowth was quantitated. Neurites longer that the DRG diameter were counted as positive, with total number of neurites quantitated per each experimental condition. Three to four DRGs are cultured per well, and each treatment was performed in duplicate.
The maximal increase in the number of processes, their length and branching is quite similar at maximally effective […] of the cyclophilin ligands and of NGF (100 ng/ml). With progressively increasing concentrations of the various drugs, one observes a larger number of processes, more extensive branching and a grater length of individual processes.

For `CC(=O)N1CCC[C@H]1C(=O)NCC(=O)N1CCC[C@H]1C(=O)N[C@@H](Cc1ccccc1)C(N)=O` [compound 1] (Ac-PGPF-NH2), the “neurotrophic effects (promotion of neurite outgrowth in chick sensory neurons)” value is “promotion of neurite outgrowth; also recorded: powerful neurotrophic effects”.
For `CC(=O)N1CCC[C@H]1C(=O)N[C@@H](C)C(=O)N1CCC[C@H]1C(=O)N[C@@H](C)C(N)=O` [compound 2] (Ac-PAPA-NH2) the value was “promotion of neurite outgrowth; also recorded: potent neurotrophic effects”.
